{"source": "PubChem BioAssay AID1963446", "about": "(Molecular Pharmacology Branch, DTP, NCI, 2024);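 further: spheroids exposed to compounds for seven days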", "system": "993429-296-R-J1-PDC complex spheroid growth, percent test/control", "assay": "Anticancer human tumor 993429-296-R-J1-PDC patient-derived uterine sarcoma cell line growth inhibition [Asc]", "details": "for IC50: curve of first compound; for viability, T/C: stronger effect = lower value", "summary_of_the_method": "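Spheroid model: tumor line + HUVEC + hMSC. Single agents and combinations; top conc. at/near clinical Cmax (10 microM if undetermined), half-log dilutions. DMSO stocks at 800-fold test concentration.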"}
{"smiles": "C=C(F)C(=O)N1CCN(c2nc(OCC3CCCN3C)nc3c2CCN(c2cccc4cccc(Cl)c24)C3)CC1CC#N", "note": "(stereo not given) + CNC(C)C(=O)NC1CN(S(=O)(=O)c2cccc(S(=O)(=O)N3CCC4CCC(C(=O)NC(c5ccccc5)c5ccccc5)N4C(=O)C(NC(=O)C(C)NC)C3)c2)CCC2CCC(C(=O)NC(c3ccccc3)c3ccccc3)N2C1=O", "values": [{"measurement": "IC50", "setting": "second compound 0.01 µM", "result": 1010, "unit": "nM"}, {"measurement": "IC50", "setting": "second compound 0.0316 µM", "result": 1040, "unit": "nM"}, {"measurement": "IC50", "setting": "second compound 0.1 µM", "result": 617, "unit": "nM"}, {"measurement": "IC50", "setting": "second compound 0.316 µM", "result": "< 31.6", "unit": "nM"}, {"measurement": "IC50", "setting": "second compound 1 µM", "result": 55.9, "unit": "nM"}, {"measurement": "viability, T/C", "setting": "second compound 0.01 µM, first compound 0.0316 µM", "result": 54.2, "unit": "%"}, {"measurement": "viability, T/C", "setting": "second compound 0.01 µM, first compound 0.1 µM", "result": 59.8, "unit": "%"}, {"measurement": "viability, T/C", "setting": "second compound 0.01 µM, first compound 0.316 µM", "result": 57.6, "unit": "%"}, {"measurement": "viability, T/C", "setting": "second compound 0.01 µM, first compound 1 µM", "result": 50.4, "unit": "%"}, {"measurement": "viability, T/C", "setting": "second compound 0.01 µM, first compound 3.16 µM", "result": 7.74, "unit": "%"}, {"measurement": "viability, T/C", "setting": "second compound 0.01 µM, first compound 10 µM", "result": 0.13, "unit": "%"}, {"measurement": "viability, T/C", "setting": "second compound 0.0316 µM, first compound 0.0316 µM", "result": 59.9, "unit": "%"}, {"measurement": "viability, T/C", "setting": "second compound 0.0316 µM, first compound 0.1 µM", "result": 58.6, "unit": "%"}, {"measurement": "viability, T/C", "setting": "second compound 0.0316 µM, first compound 0.316 µM", "result": 55.4, "unit": "%"}, {"measurement": "viability, T/C", "setting": "second compound 0.0316 µM, first compound 1 µM", "result": 51.7, "unit": "%"}, {"measurement": "viability, T/C", "setting": "second compound 0.0316 µM, first compound 3.16 µM", "result": 5.7, "unit": "%"}, {"measurement": "viability, T/C", "setting": "second compound 0.0316 µM, first compound 10 µM", "result": 0.12, "unit": "%"}, {"measurement": "viability, T/C", "setting": "second compound 0.1 µM, first compound 0.0316 µM", "result": 51.4, "unit": "%"}, {"measurement": "viability, T/C", "setting": "second compound 0.1 µM, first compound 0.1 µM", "result": 54.7, "unit": "%"}, {"measurement": "viability, T/C", "setting": "second compound 0.1 µM, first compound 0.316 µM", "result": 54.8, "unit": "%"}, {"measurement": "viability, T/C", "setting": "second compound 0.1 µM, first compound 1 µM", "result": 47.4, "unit": "%"}, {"measurement": "viability, T/C", "setting": "second compound 0.1 µM, first compound 3.16 µM", "result": 7.4, "unit": "%"}, {"measurement": "viability, T/C", "setting": "second compound 0.1 µM, first compound 10 µM", "result": 0.12, "unit": "%"}, {"measurement": "viability, T/C", "setting": "second compound 0.316 µM, first compound 0.0316 µM", "result": 45.9, "unit": "%"}, {"measurement": "viability, T/C", "setting": "second compound 0.316 µM, first compound 0.1 µM", "result": 52.4, "unit": "%"}, {"measurement": "viability, T/C", "setting": "second compound 0.316 µM, first compound 0.316 µM", "result": 40.3, "unit": "%"}, {"measurement": "viability, T/C", "setting": "second compound 0.316 µM, first compound 1 µM", "result": 45.4, "unit": "%"}, {"measurement": "viability, T/C", "setting": "second compound 0.316 µM, first compound 3.16 µM", "result": 7.07, "unit": "%"}, {"measurement": "viability, T/C", "setting": "second compound 0.316 µM, first compound 10 µM", "result": 0.12, "unit": "%"}, {"measurement": "viability, T/C", "setting": "second compound 1 µM, first compound 0.0316 µM", "result": 57.8, "unit": "%"}, {"measurement": "viability, T/C", "setting": "second compound 1 µM, first compound 0.1 µM", "result": 37.8, "unit": "%"}, {"measurement": "viability, T/C", "setting": "second compound 1 µM, first compound 0.316 µM", "result": 37.6, "unit": "%"}, {"measurement": "viability, T/C", "setting": "second compound 1 µM, first compound 1 µM", "result": 34.2, "unit": "%"}, {"measurement": "viability, T/C", "setting": "second compound 1 µM, first compound 3.16 µM", "result": 3.13, "unit": "%"}, {"measurement": "viability, T/C", "setting": "second compound 1 µM, first compound 10 µM", "result": 0.2, "unit": "%"}]}
{"smiles": "NC1CCC(NC2CC2c2ccccc2)CC1", "note": "(stereo not given) + CCN1C(C(=O)NC23CCC(C(=O)O)(CC2)CC3)C(c2cccc(Cl)c2F)C2(C(=O)Nc3cc(Cl)ccc32)C12CCCCC2", "values": [{"measurement": "IC50", "setting": "second compound 0.03 µM", "result": "> 100", "unit": "nM"}, {"measurement": "IC50", "setting": "second compound 0.0949 µM", "result": "> 100", "unit": "nM"}, {"measurement": "IC50", "setting": "second compound 0.3 µM", "result": "> 100", "unit": "nM"}, {"measurement": "IC50", "setting": "second compound 0.949 µM", "result": "> 100", "unit": "nM"}, {"measurement": "IC50", "setting": "second compound 3 µM", "result": "> 100", "unit": "nM"}, {"measurement": "viability, T/C", "setting": "second compound 0.03 µM, first compound 0.000316 µM", "result": 76.4, "unit": "%"}, {"measurement": "viability, T/C", "setting": "second compound 0.03 µM, first compound 0.001 µM", "result": 75.4, "unit": "%"}, {"measurement": "viability, T/C", "setting": "second compound 0.03 µM, first compound 0.00316 µM", "result": 80.2, "unit": "%"}, {"measurement": "viability, T/C", "setting": "second compound 0.03 µM, first compound 0.01 µM", "result": 77.8, "unit": "%"}, {"measurement": "viability, T/C", "setting": "second compound 0.03 µM, first compound 0.0316 µM", "result": 81.4, "unit": "%"}, {"measurement": "viability, T/C", "setting": "second compound 0.03 µM, first compound 0.1 µM", "result": 91.8, "unit": "%"}, {"measurement": "viability, T/C", "setting": "second compound 0.0949 µM, first compound 0.000316 µM", "result": 91.1, "unit": "%"}, {"measurement": "viability, T/C", "setting": "second compound 0.0949 µM, first compound 0.001 µM", "result": 77.5, "unit": "%"}, {"measurement": "viability, T/C", "setting": "second compound 0.0949 µM, first compound 0.00316 µM", "result": 74.7, "unit": "%"}, {"measurement": "viability, T/C", "setting": "second compound 0.0949 µM, first compound 0.01 µM", "result": 66.8, "unit": "%"}, {"measurement": "viability, T/C", "setting": "second compound 0.0949 µM, first compound 0.0316 µM", "result": 93, "unit": "%"}, {"measurement": "viability, T/C", "setting": "second compound 0.0949 µM, first compound 0.1 µM", "result": 81.5, "unit": "%"}, {"measurement": "viability, T/C", "setting": "second compound 0.3 µM, first compound 0.000316 µM", "result": 98.2, "unit": "%"}, {"measurement": "viability, T/C", "setting": "second compound 0.3 µM, first compound 0.001 µM", "result": 74.7, "unit": "%"}, {"measurement": "viability, T/C", "setting": "second compound 0.3 µM, first compound 0.00316 µM", "result": 69, "unit": "%"}, {"measurement": "viability, T/C", "setting": "second compound 0.3 µM, first compound 0.01 µM", "result": 80.2, "unit": "%"}, {"measurement": "viability, T/C", "setting": "second compound 0.3 µM, first compound 0.0316 µM", "result": 69.3, "unit": "%"}, {"measurement": "viability, T/C", "setting": "second compound 0.3 µM, first compound 0.1 µM", "result": 83.8, "unit": "%"}, {"measurement": "viability, T/C", "setting": "second compound 0.949 µM, first compound 0.000316 µM", "result": 72, "unit": "%"}, {"measurement": "viability, T/C", "setting": "second compound 0.949 µM, first compound 0.001 µM", "result": 76.9, "unit": "%"}, {"measurement": "viability, T/C", "setting": "second compound 0.949 µM, first compound 0.00316 µM", "result": 83.1, "unit": "%"}, {"measurement": "viability, T/C", "setting": "second compound 0.949 µM, first compound 0.01 µM", "result": 83.2, "unit": "%"}, {"measurement": "viability, T/C", "setting": "second compound 0.949 µM, first compound 0.0316 µM", "result": 76.6, "unit": "%"}, {"measurement": "viability, T/C", "setting": "second compound 0.949 µM, first compound 0.1 µM", "result": 88.9, "unit": "%"}, {"measurement": "viability, T/C", "setting": "second compound 3 µM, first compound 0.000316 µM", "result": 75.2, "unit": "%"}, {"measurement": "viability, T/C", "setting": "second compound 3 µM, first compound 0.001 µM", "result": 85.6, "unit": "%"}, {"measurement": "viability, T/C", "setting": "second compound 3 µM, first compound 0.00316 µM", "result": 79.7, "unit": "%"}, {"measurement": "viability, T/C", "setting": "second compound 3 µM, first compound 0.01 µM", "result": 74.1, "unit": "%"}, {"measurement": "viability, T/C", "setting": "second compound 3 µM, first compound 0.0316 µM", "result": 70.3, "unit": "%"}, {"measurement": "viability, T/C", "setting": "second compound 3 µM, first compound 0.1 µM", "result": 71, "unit": "%"}]}
